Reference: US20250115581A1, “SUBSTITUTED PIPERIDINES AS CK1A DEGRADERS” (Monte Rosa Therapeutics, Inc., priority 2022, published 2025)

Tests used:
LS174T = test: Growth inhibition, CyQUANT Direct Cell Proliferation Assay, LS174T; assay type: cell-based; conditions: Homo sapiens; LS174T cells, 120 to 168 hours
Protocol: (§1) SKCO1, LS180, and LS174T cell lines were purchased from ATCC. CW2 cell line was purchased from Riken. GP2D cell line was purchased from Sigma/ECACC. All cell lines were cultured in manufacturer's recommended media at 37° C., 5% CO2. Briefly, cells were suspended in 200 μL of media and seeded at 300 to 1,800 cells per well in tissue culture treated 96-well plates with black walls and clear bottom. Plates were incubated overnight and initial (TO) read was performed the following day using CyQUANT Direct Cell Proliferation Assay Kit (Thermo Fisher Scientific) according to manufacturer's protocol. All compounds were solubilized in DMSO and prepared at 3-fold serial dilution, using 9 points starting at 30 μM as highest concentration, administered to cells and incubated for 120 to 168 hours, at which point CyQUANT assay measurement was performed using Acumen Cellista instrument (Ex/Em 480/520 nm). Media-only wells were used as blank, and 0.3% DMSO was used as DMSO-treated cell control. Growth inhibition (percent response) was calculated using the following formula in Excel: “=if ([Compound treated Day N]>[Untreated Day 0, AVG], ([Compound treated Day N]− [Untreated Day 0, AVG])/([Untreated Day N]−[Untreated Day 0, AVG])*100, ([Compound Treated Day N]−[Untreated Day 0, AVG])/([Untreated Day 0, AVG])*100)”. GI50 is the response corresponding to the 50% of untreated control.
(§2) GI50 data are reported in Tables 4a, 4b, 4c, 4d, and 4e for compounds in Table 1. In Tables 4a, 4b, 4c, 4d, and 4e below, According to the code, A represents a GI50 value of ≤0.1 μM, B represents a GI50 value >0.1 μM and ≤1 μM, C represents an GI50 value >1 μM.

CW2 = test: Growth inhibition, CyQUANT Direct Cell Proliferation Assay, CW2; assay type: cell-based; conditions: Homo sapiens, CW-2; CW2 cells, 120 to 168 hours
Protocol: as §1, §2

GP2D = test: Growth inhibition, CyQUANT Direct Cell Proliferation Assay, GP2D; assay type: cell-based; conditions: GP2D cells, 120 to 168 hours
Protocol: as §1, §2

CK1α = target: T1, CK1α (Homo sapiens, UniProt P48729+Q96SW2); test: CK1α NanoBit Assay (HiBiT-tagged CSNK1A1 in HEK293 cells, luminescence); assay type: cell-based; conditions: 24 h
T1 construct: HEK293 clonal lines with CRISPR KI HiBiT tag on CSNK1A1; host or cells: HEK293 clonal line, CRISPR knock-in HiBiT at the CSNK1A1 locus, stably expressing LgBiT
T1 sequence (P48729 whole entry): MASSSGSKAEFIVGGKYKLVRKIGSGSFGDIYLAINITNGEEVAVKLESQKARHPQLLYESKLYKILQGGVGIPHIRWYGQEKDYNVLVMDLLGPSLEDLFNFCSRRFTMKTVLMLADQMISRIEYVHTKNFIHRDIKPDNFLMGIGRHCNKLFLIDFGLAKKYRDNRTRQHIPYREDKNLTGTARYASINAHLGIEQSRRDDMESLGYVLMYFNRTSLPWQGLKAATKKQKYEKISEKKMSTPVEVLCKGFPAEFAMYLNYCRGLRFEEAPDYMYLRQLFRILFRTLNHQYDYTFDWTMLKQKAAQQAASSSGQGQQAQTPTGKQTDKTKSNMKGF
T1 sequence (Q96SW2 whole entry): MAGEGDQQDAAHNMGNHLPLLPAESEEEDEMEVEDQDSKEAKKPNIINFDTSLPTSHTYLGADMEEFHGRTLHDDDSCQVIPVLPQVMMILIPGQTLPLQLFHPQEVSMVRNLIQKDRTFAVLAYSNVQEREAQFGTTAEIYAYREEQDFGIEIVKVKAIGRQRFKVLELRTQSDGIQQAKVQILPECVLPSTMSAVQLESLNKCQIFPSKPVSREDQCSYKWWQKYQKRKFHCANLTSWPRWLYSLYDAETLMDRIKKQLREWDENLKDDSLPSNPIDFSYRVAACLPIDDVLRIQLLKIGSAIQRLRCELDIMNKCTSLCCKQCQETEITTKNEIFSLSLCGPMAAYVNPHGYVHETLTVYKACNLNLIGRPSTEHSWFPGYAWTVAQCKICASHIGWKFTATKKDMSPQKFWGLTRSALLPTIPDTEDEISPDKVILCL
T1 sequence (Q16531 whole entry partner): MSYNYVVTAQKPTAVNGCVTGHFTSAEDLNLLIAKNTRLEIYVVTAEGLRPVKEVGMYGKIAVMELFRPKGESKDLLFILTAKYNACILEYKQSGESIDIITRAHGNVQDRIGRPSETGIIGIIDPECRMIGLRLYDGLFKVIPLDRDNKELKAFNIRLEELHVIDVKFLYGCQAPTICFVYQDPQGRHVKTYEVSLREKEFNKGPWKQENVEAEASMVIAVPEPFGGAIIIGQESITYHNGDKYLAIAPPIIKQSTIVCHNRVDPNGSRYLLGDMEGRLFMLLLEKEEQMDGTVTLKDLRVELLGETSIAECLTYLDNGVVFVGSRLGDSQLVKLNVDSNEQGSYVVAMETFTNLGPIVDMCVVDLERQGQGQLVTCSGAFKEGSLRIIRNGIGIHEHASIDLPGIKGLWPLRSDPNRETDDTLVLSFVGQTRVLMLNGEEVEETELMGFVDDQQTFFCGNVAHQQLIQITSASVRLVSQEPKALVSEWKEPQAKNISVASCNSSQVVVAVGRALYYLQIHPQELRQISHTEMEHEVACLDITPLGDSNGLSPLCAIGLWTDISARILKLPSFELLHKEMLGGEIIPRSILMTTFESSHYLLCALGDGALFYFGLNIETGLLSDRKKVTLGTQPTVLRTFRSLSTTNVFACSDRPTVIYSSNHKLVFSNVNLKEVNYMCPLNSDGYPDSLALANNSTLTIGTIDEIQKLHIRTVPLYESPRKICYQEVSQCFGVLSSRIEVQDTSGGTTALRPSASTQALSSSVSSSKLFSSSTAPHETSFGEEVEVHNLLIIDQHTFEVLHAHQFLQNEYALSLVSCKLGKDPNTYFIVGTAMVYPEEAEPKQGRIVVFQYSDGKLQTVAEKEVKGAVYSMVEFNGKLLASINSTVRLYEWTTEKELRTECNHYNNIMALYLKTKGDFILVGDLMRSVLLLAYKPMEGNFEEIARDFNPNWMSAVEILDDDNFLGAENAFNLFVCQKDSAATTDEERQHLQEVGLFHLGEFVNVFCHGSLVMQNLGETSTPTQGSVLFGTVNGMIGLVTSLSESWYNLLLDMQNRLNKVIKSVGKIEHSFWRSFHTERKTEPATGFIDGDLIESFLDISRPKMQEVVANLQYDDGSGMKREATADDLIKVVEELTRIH
In short: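 HEK293 with endogenous HiBiT-tagged CSNK1A1 and stable LgBiT, live-cell Endurazine substrate; compound added at 10 or 30 μM final top concentration after 16 h plating, then 24 h at 37 °C. Luminescence normalised to plate controls; DC50 by 3-parameter logistic fit, hill slope 1.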

CRBN/DDB1 = CRBN/DDB1 (Homo sapiens, UniProt Q96SW2); test: HTRF binding assay (displacement of Cy5-thalidomide probe from CRBN/DDB1); conditions: CRBN/DDB1 2.5 nM, Cy5-Thalidomide 100 nM, 30 min; geometric mean; read-out: HTRF_Thali_Disp_DR_geo_IC50
CRBN/DDB1, sequence (Q96SW2 whole entry): as the sequence (Q96SW2 whole entry) above
CRBN/DDB1, sequence (Q16531 whole entry partner): as the sequence (Q16531 whole entry partner) above
In short: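 HTRF displacement of Cy5-thalidomide probe (100 nM) from His-tagged CRBN/DDB1 (2.5 nM) with anti-His terbium cryptate, in HEPES/NaCl/TCEP/EDTA/Tween20 buffer; 10-point 1:3 series, 30 min at ambient temperature. 665/620 nm ratio fitted 4-parameter logistic for IC50; Ki via Cheng-Prusoff.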

LS180 = test: Growth inhibition, CyQUANT Direct Cell Proliferation Assay, LS180; assay type: cell-based; conditions: Homo sapiens; LS180 cells, 120 to 168 hours
Protocol: as §1, §2

SKCO1 = test: Growth inhibition, CyQUANT Direct Cell Proliferation Assay, SKCO1; assay type: cell-based; conditions: Homo sapiens, SK-CO-1; SKCO1 cells, 120 to 168 hours
Protocol: as §1, §2

For `O=C1CCC(N2Cc3cc(N4CCN(c5ccc(C(F)F)nc5)C4=O)ccc3C2=O)C(=O)N1` (stereo not drawn) [Compound 124, 3-(5-(3-(6-(difluoromethyl)pyridin-3-yl)-2-oxoimidazolidin-1-yl)-1-oxoisoindolin-2-yl)piperidine-2,6-dione], the GI50 (LS174T) was ≤ 100 nM, the GI50 (CW2) was ≤ 100 nM and the GI50 (GP2D) was 100 to 1000 nM. For the same molecule, the DC50 (CK1α) was ≤ 0.1 µM, the IC50 (CRBN/DDB1) was 100 to 1000 nM and the GI50 (LS180) was 100 to 1000 nM. The GI50 (SKCO1) was 100 to 1000 nM.

`Cc1ccc(N2CCN(c3ccc4c(c3)CN(C3CCC(=O)NC3=O)C4=O)C2=O)cn1` (stereo not drawn) [Compound 104, 3-(5-(3-(6-methylpyridin-3-yl)-2-oxoimidazolidin-1-yl)-1-oxoisoindolin-2-yl)piperidine-2,6-dione] showed a GI50 (LS174T) of 100 to 1000 nM, a GI50 (CW2) of 100 to 1000 nM and a GI50 (GP2D) of 100 to 1000 nM. For the same molecule, the DC50 (CK1α) was ≤ 0.1 µM, the IC50 (CRBN/DDB1) was 100 to 1000 nM and the GI50 (LS180) was 100 to 1000 nM. For the same molecule, the GI50 (SKCO1) was 100 to 1000 nM.

With `C[C@@H]1CN(c2ccc3c(c2)CN(C2CCC(=O)NC2=O)C3=O)C(=O)N1c1ccc(C2CC2)nc1` (stereo partly drawn) [Compound 137, 3-(5-((R)-3-(6-cyclopropylpyridin-3-yl)-4-methyl-2-oxoimidazolidin-1-yl)-1-oxoisoindolin-2-yl)piperidine-2,6-dione] the GI50 (LS174T) was 100 to 1000 nM, the GI50 (CW2) was 100 to 1000 nM and the GI50 (GP2D) was > 1000 nM. For the same molecule, the DC50 (CK1α) was ≤ 0.1 µM, the IC50 (CRBN/DDB1) was 100 to 1000 nM and the GI50 (LS180) was > 1000 nM. For the same molecule, the GI50 (SKCO1) was 100 to 1000 nM.

`Cc1ccc(N2CCN(c3ccc4c(c3)CN(C3CCC(=O)NC3=O)C4=O)C2=O)cc1` (stereo not drawn) [Compound 111, 3-(1-oxo-5-(2-oxo-3-(p-tolyl)imidazolidin-1-yl)isoindolin-2-yl) piperidine-2,6-dione] was tested, and the GI50 (LS174T) was 100 to 1000 nM, the GI50 (CW2) was ≤ 100 nM and the GI50 (GP2D) was 100 to 1000 nM. For the same molecule, the DC50 (CK1α) was ≤ 0.1 µM, the IC50 (CRBN/DDB1) was 100 to 1000 nM and the GI50 (LS180) was 100 to 1000 nM. The GI50 (SKCO1) was ≤ 100 nM.

With `O=C1CCC(N2Cc3cc(N4CCN(c5ccc(C(F)(F)F)nc5)C4=O)ccc3C2=O)C(=O)N1` (stereo not drawn) [Compound 126, 3-(1-oxo-5-(2-oxo-3-(6-(trifluoromethyl)pyridin-3-yl)imidazolidin-1-yl)isoindolin-2-yl)piperidine-2,6-dione] the GI50 (LS174T) was 100 to 1000 nM, the GI50 (CW2) was ≤ 100 nM and the GI50 (GP2D) was 100 to 1000 nM. For the same molecule, the DC50 (CK1α) was ≤ 0.1 µM, the IC50 (CRBN/DDB1) was 100 to 1000 nM and the GI50 (LS180) was 100 to 1000 nM. For the same molecule, the GI50 (SKCO1) was 100 to 1000 nM.

With `O=C1CCC(N2Cc3cc(N4CCN(c5ccc(C6CC6)cc5)C4=O)ccc3C2=O)C(=O)N1` (stereo not drawn) [Compound 123, 3-(5-(3-(4-cyclopropylphenyl)-2-oxoimidazolidin-1-yl)-1-oxoisoindolin-2-yl)piperidine-2,6-dione] the GI50 (LS174T) was ≤ 100 nM, the GI50 (CW2) was ≤ 100 nM and the GI50 (GP2D) was 100 to 1000 nM. For the same molecule, the DC50 (CK1α) was ≤ 0.1 µM, the IC50 (CRBN/DDB1) was > 1000 nM and the GI50 (LS180) was 100 to 1000 nM. For the same molecule, the GI50 (SKCO1) was ≤ 100 nM.
